Measurements published in patent publication US20080268535A1, “Method for Inducing the Differentiation of Human Myelogenous Leukemia Cells Into Megakarocytes or Thrombocytes” (EWHA University - Industry Collaboration Foundation, priority 2005, published 2008).

Key:
Assay type in all cases: cell-based, human
[1] = system: K562 cells; experiment: Growth curve of K562 cells (trypan blue viable cell count); conditions: 40 μg/ml, counted every day for 5 days
Procedure: To examine the effect of the compound (R)-NALPCE on cell growth, K562 cells was monitored for growth in the presence thereof. The cells were aliquoted at a density of 1×10^5 cells per well in 6-well plates and treated with 40 μg/ml. After staining with trypan blue, viable cells were counted every day for 5 days.

[2] = system: K562 cells; experiment: Binding of FITC-fibrinogen to glycoprotein IIb/IIIa complexes of differentiated K562 cells (FACS); conditions: K562 cells on OP9 cells, 40 μg/ml, 5 days, activated with 100 nM PMA
Source text: Bone marrow progenitor cells, such as K562 cells, have glycoprotein IIb/IIIa complexes expressed thereon at a low level, but the number of complexes increases as the cells increase in size according to differentiation into megakaryocytes. By taking advantage of the fact that fibrinogens, which play a key role in blood clotting, bind to activated glycoprotein IIb/IIIa (GP IIb/IIIa) complex, the differentiation of K562 cells into megakaryocytes by (R)-NALPCE was investigated.
A process similar to that of Experimental Example 8 was conducted. OP9 cells were aliquoted at a density of 1×10^5 cells in 6-well plates and incubated for 24 hrs. After the OP9 cells were uniformly attached onto the bottom of the plates, K562 cells were layered at a density of 1×10^5 cells over the OP9 cells in 6-well plates. The cells were treated with 40 μg/ml of (R)-NALPCE before incubation in a day-dependent manner for 5 days. The (R)-NALPCE-treated K562 cells were transferred to 60 mm-dishes everyday and treated with 100 nM of PMA for 30 min to activate glycoprotein IIb/IIIa complexes. The cells thus differentiated were collected and suspended in 50 μl of PBS. […] Following the addition of […] of PBS, the amount of fibrinogen bound to the surface of the activated K562 cells was quantitatively determined as fluorescence was analyzed on a fluorescence-activated cell sorter (FACS) (Aria) using a Cellquest program.

[3] = system: K562 cells; experiment: Transmission electron microscopy of cells differentiated from K562 cells on OP9 cells; conditions: 40 μg/ml, 5 days
Procedure: OP9 cells were aliquoted at a density of 1×10^5 cells in 6-well plates and incubated for 24 hrs. After the OP9 cells were uniformly attached onto the bottom of the plates, K562 cells were layered at a density of 1×10^5 cells over the OP9 cells in 6-well plates. The cells were treated with 40 μg/ml of (R)-NALPCE before incubation for 5 days. Following centrifugation (1,000 rpm, 5 min), the cells were pre-fixed with 2.5% glutaraldehyde in PBS (pH 7.4) for 24 hrs. Thereafter, cell pellets obtained by centrifugation (4,000 rpm, 10 min) were fixed for 1 hr with 1% osmium tetraoxide in 0.1 M PBS (pH 7.4). After being washed with PBS, the post-fixed samples were dehydrated with 60, 70, 80, 90, and 95% ethanol for 10 min each and then twice with 100% ethanol for 10 min each, and embedded in epoxy resin. The embedded samples were sectioned into slices 1 μm thick using an ultramicrotome diamond knife (Richert-Jung, U.S.A.) and stained with 1% toluidine blue for optical microscopy. Separately, ultra-thin sections ranging in thickness from 60 to 70 nm were prepared and stained sequentially with 1-2% uranyl acetate and 1% lead citrate for transmission electron microscopy, in which electrons were accelerated at 75 kV using H-600 TEM (Hitachi, Japan).

[4] = system: K562 cells; experiment: MTT cytotoxicity assay of (R)-NALPCE; conditions: 10 to 50 μg/ml, 48 hrs incubation
Procedure: In order to examine whether the compound (R)-NALPCE is toxic to cells, MTT (3-[4,5-dimethylthiazol-2-yl]-2,5-diphenyltetrazolium bromide) assay was conducted in K562 cells which are the leukemia cells derived from human bone marrow. These cells were aliquoted at a density of 4×10^4 cells per well in 96-well plates and treated with various concentrations of (R)-NALPCE, followed by incubation for 48 hrs. Thereafter, an MTT solution was added in an amount of 20 μl to each well. Incubation at 37° C. for 4 hrs, treatment with a 20% sodium dodecyl sulfate (SDS) solution (in an equivolume mixture of N,N-dimethylformamide and distilled water), and incubation at 37° C. for 16 hrs were sequentially conducted in that order before the absorbance at 570 nm was read using an ELISA reader (Bio-Tek Instrument, Winiiski, Vt.). The assay was conducted in triplicate.

[5] = system: K562 cells; experiment: Differentiation inductivity, lineage receptor expression by FACS, K562 cells; conditions: K562 cells, 40 μg/ml (R)-NALPCE or 30 nM PMA, 4 days
Procedure: K562 cells were aliquoted at a density of 2×10^5 per well in 6-well plates and treated with 40 μg/ml of (R)-NALPCE or 30 nM of PMA (12-phorbol myristate-13-acetate, Calbiochem.), followed by incubation for 4 days. After centrifugation (1,000 rpm, 10 min), the cell pellets thus obtained were washed three times with 0.01% bovine serum albumin (BSA) in PBS. The cells were incubated with 10 μl of anti-CD41-fluorescein-5-isothiocyanate (FITC) (Dako Chemicals, Carpenteria, Calif.), 20 μl of anti-CD16-Cy-Chrome (Cy) (BD Pharmingen), 10 μl of anti-glycophorin ACD235a-phycoerythrin (PE) (Dako Chemicals, Carpenteria, Calif.), and 20 μl of anti-CD14-allophycocyanin (APC) (BD Pharmingen) in 200 μl of 0.01% bovine serum albumin (BSA)-PBS at 4° C. for 50 min while spinning to realize homogeneous fluorescent staining. After centrifugation (1,000 rpm, 10 min), the cell pellets thus obtained were washed three times with 0.01% bovine serum albumin (BSA) in PBS. Fluorescence was analyzed on a fluorescence-activated cell sorter (FACS) (Aria) using a Cellquest program.

## CCCCCCCCCCCCCCCCCC(=O)NC(COP(=O)([O-])OCC[N+](C)(C)C)C(=O)OC [(R)-NALPCE, N-steroyl-O-phosphocholine-D-serine methyl ester]
[1]
  cell growth curve (viable cells): relatively low cell growth curve
[2]
  fluorescence of fibrinogens bound to glycoprotein IIb/IIIa complexes: increase in a day-dependent manner
[3]
  maturity of megakaryocytes (TEM): have demarcation channels within which platelets are held
  morphology of released platelets (TEM): morphology similar to that of the pre-existing blood platelets
[3]; TEM
  polymorphonuclear megakaryocytes having at least two nuclei among the differentiated cells: ≥ 40%
[4]
  cytotoxicity on K562 cells (MTT): does not exert cytotoxicity
[5]
  expression of CD41, CD16, glycophorin A and CD14 receptors: CD41 and CD16 were specifically expressed
